# Columns and labels:
# barnyardgrass [1] = experiment: Test B pre-/postemergence herbicide test; type: in vivo, Echinochloa crus-galli; conditions: for Plant response rating (0 to 100 scale), Barnyardgrass: 0 is no effect, preemergence
# Procedure, shortened: (§1)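 Flooded paddy rice and barnyardgrass were treated at the 2-leaf stage; upland plantings received compound either on sown seed or on 1- to 4-leaf seedlings. All were kept 13–15 days in a greenhouse and scored visually, 0–100, relative to untreated plants.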
# Surinam grass = experiment: Test B pre-/postemergence herbicide test; type: in vivo, Urochloa decumbens; conditions: for Plant response rating (0 to 100 scale), Surinam Grass: 0 is no effect, 100 is complete control, preemergence
# Procedure, shortened: (§2)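 Test chemicals in a non-phytotoxic solvent mixture with surfactant were applied preemergence to seeded species and postemergence to plants 2-18 cm tall (1- to 4-leaf stage); rice and barnyardgrass were also tested in a flooded paddy at the 2-leaf stage. Visual rating versus controls after 13-15 days in greenhouse, scale 0 (no effect) to 100 (complete control).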
# cocklebur = experiment: Test B pre-/postemergence herbicide test; type: in vivo, Xanthium strumarium; conditions: for Plant response rating (0 to 100 scale), Cocklebur: 0 is no effect, preemergence
# Procedure, shortened: as §1
# corn = experiment: Test B pre-/postemergence herbicide test; type: in vivo, Zea mays; conditions: for Plant response rating (0 to 100 scale), Corn: 0 is no effect, preemergence
# Procedure, shortened: as §2
# large crabgrass = experiment: Test B pre-/postemergence herbicide test; type: in vivo, Digitaria sanguinalis; conditions: for Plant response rating (0 to 100 scale), Crabgrass, Large: 0 is no effect, preemergence
# Procedure, shortened: as §2
# giant foxtail = experiment: Test B pre-/postemergence herbicide test; type: in vivo, Setaria faberi; conditions: for Plant response rating (0 to 100 scale), Foxtail, Giant: 0 is no effect, preemergence
# Procedure, shortened: as §2
# lambsquarters = experiment: Test B pre-/postemergence herbicide test; type: in vivo, Chenopodium album
# Procedure, shortened: as §2
# morningglory = experiment: Test B pre-/postemergence herbicide test; type: in vivo, Ipomoea coccinea; conditions: for Plant response rating (0 to 100 scale), Morningglory: 0 is no effect, 100 is complete control, preemergence
# Procedure, shortened: as §1
# pigweed = experiment: Test B pre-/postemergence herbicide test; type: in vivo, Amaranthus retroflexus; conditions: for Plant response rating (0 to 100 scale), Pigweed: 0 is no effect, 100 is complete control, preemergence
# Procedure, shortened: as §2
# velvetleaf = experiment: Test B pre-/postemergence herbicide test; type: in vivo, Abutilon theophrasti; conditions: for Plant response rating (0 to 100 scale), Velvetleaf: 0 is no effect, 100 is complete control, preemergence
# Procedure, shortened: as §2
# blackgrass = experiment: Test B postemergence herbicide test; type: in vivo, Alopecurus myosuroides
# Procedure, shortened: (§3)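 After treating 2-leaf paddy plants or 2–18 cm postemergence plants (1 to 4 leaves) with formulated chemical, researchers kept them in a greenhouse for 13–15 days. Effects were judged visually versus controls: 0 indicates none, 100 total control.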
# wheat = experiment: Test B postemergence herbicide test; type: in vivo, Triticum aestivum; parameters: key to Wheat plant response rating: 0 = no effect, 100 = complete control
# Procedure, shortened: (§4)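 Plants grow to 1- to 4-leaf stage (2–18 cm) for postemergence spraying, or to 2-leaf stage for the paddy test. Formulated compound is applied. Greenhouse holding lasts 13–15 days. Response is scored visually relative to controls, 0 no effect to 100 complete control; a dash means no result.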
# wild oat = experiment: Test B postemergence herbicide test; type: in vivo, Avena fatua
# Procedure, shortened: as §4
# rice [2] = experiment: Test B flooded paddy test; type: in vivo, Oryza sativa; conditions: 1000 g ai/ha, scale 0 to 100 (0 no effect, 100 complete control)
# Procedure, shortened: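 Paddy species grown to the 2-leaf stage under flooding; blackgrass sprayed postemergence at 2–18 cm (1- to 4-leaf stage). Plants kept in a greenhouse for 13 to 15 days, then visually rated against controls on 0 (no effect) to 100 (complete control).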
# [3] = system: small flower umbrella sedge; experiment: Test B flooded paddy test; type: in vivo, Cyperus difformis; conditions: 1000 g ai/ha, scale 0 to 100 (0 no effect, 100 complete control)
# Procedure, shortened: as §3
# ducksalad [4] = experiment: Test B flooded paddy test; type: in vivo, Heteranthera limosa; conditions: 1000 g ai/ha, scale 0 to 100 (0 no effect, 100 complete control)
# Procedure, shortened: as §3
# barnyardgrass [5] = experiment: Test B flooded paddy test; type: in vivo, Echinochloa crus-galli; conditions: 1000 g ai/ha, scale 0 to 100 (0 no effect, 100 complete control)
# Procedure, shortened: as §3
# rice [6] = experiment: Test C flooded paddy test; type: in vivo, Oryza sativa; conditions: for Plant response rating, Rice: 500 g ai/ha, visual rating after 12 to 14 days
# Procedure, shortened: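 Postemergence sprays applied to plants 2 to 18 cm tall (1- to 4-leaf stage); paddy species grown to 2-leaf stage under flooding. After 12 to 14 days in greenhouse, visual rating versus untreated controls on 0–100 scale (0 no effect, 100 complete control).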
# [7] = system: smallflower umbrella sedge; experiment: Test C flooded paddy test; type: in vivo, Cyperus difformis
# ducksalad [8] = experiment: Test C flooded paddy test; type: in vivo, Heteranthera limosa
# barnyardgrass [9] = experiment: Test C flooded paddy test; type: in vivo, Echinochloa crus-galli; conditions: for Plant response rating, Barnyardgrass: 500 g ai/ha, visual rating after 12 to 14 days
# Procedure, shortened: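 Visual rating, 0 (no effect) to 100 (complete control), vs. controls at 12–14 d in greenhouse. Postemergence: 1–4-leaf plants, 2–18 cm. Paddy: flooded, barnyardgrass at 2-leaf stage.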
# [10] = 125 g ai/ha, 100 is complete control
# [11] = Postemergence, 500 g ai/ha, scale 0 (no effect) to 100 (complete control)
# [12] = postemergence, 125 g ai/ha, scale 0 to 100
# [13] = 500 g ai/ha, scale 0 to 100, 0 no effect, 100 complete control, preemergence
# [14] = 125 g ai/ha, scale 0 to 100 (0 no effect, 100 complete control)
# [15] = 250 g ai/ha, scale of 0 to 100, 0 is no effect, 100 is complete control
# [16] = scale 0 to 100 (0 no effect, 100 complete control)
# [17] = 500 g ai/ha, visual rating after 12 to 14 days, scale 0 to 100 (0 no effect, 100 complete control)
# [18] = 62 g ai/ha, scale 0 to 100 (0 no effect, 100 complete control)
# [19] = 125 g ai/ha, visual rating, scale 0 (no effect) to 100 (complete control), postemergence
# [20] = postemergence, 500 g ai/ha, scale 0 to 100, 0 is no effect, 100 is complete control
compound,measurement,setting,value
CCc1nn(C(C)C)nc1C(=S)Nc1cccc(C(=S)N(C)C)c1 [Compound 410],"Plant response rating (0 to 100 scale), Barnyardgrass",barnyardgrass [1]; [10],100
same,Barnyardgrass plant response rating,"barnyardgrass [1]; Postemergence, 125 g ai/ha, scale 0 (no effect) to 100 (complete control)",0
same,Barnyardgrass plant response rating,barnyardgrass [1]; [11],0
same,"Plant response rating (0 to 100 scale), Surinam Grass",Surinam grass; 125 g ai/ha,60
same,Surinam Grass plant response rating,Surinam grass; [11],0
same,Surinam Grass plant response rating,Surinam grass; [12],0
same,"Plant response rating (0 to 100 scale), Cocklebur",cocklebur; [10],0
same,Cocklebur plant response rating,cocklebur; [11],10
same,Cocklebur plant response rating,cocklebur; [12],0
same,"Plant response rating (0 to 100 scale), Corn",corn; [10],0
same,Corn plant response rating,corn; [11],10
same,Corn plant response rating,corn; [12],0
same,"Plant response rating (0 to 100 scale), Crabgrass, Large",large crabgrass; [10],90
same,"Crabgrass, Large plant response rating",large crabgrass; [11],20
same,"Crabgrass, Large plant response rating",large crabgrass; [12],0
same,"Plant response rating (0 to 100 scale), Foxtail, Giant",giant foxtail; [10],30
same,"Foxtail, Giant plant response rating",giant foxtail; [11],20
same,"Foxtail, Giant plant response rating",giant foxtail; [12],10
same,"Plant response rating (0 to 100 scale), Lambsquarters","lambsquarters; 125 g ai/ha, 0 is no effect, 100 is complete control, preemergence",100
same,Lambsquarters plant response rating,lambsquarters; [11],70
same,Lambsquarters plant response rating,lambsquarters; [12],20
same,"Plant response rating (0 to 100 scale), Morningglory",morningglory; 125 g ai/ha,30
same,Morningglory plant response rating,morningglory; [11],80
same,Morningglory plant response rating,morningglory; [12],0
same,"Plant response rating (0 to 100 scale), Pigweed",pigweed; 125 g ai/ha,60
same,Pigweed plant response rating,pigweed; [11],70
same,Pigweed plant response rating,pigweed; [12],0
same,"Plant response rating (0 to 100 scale), Velvetleaf",velvetleaf; 125 g ai/ha,30
same,Velvetleaf plant response rating,velvetleaf; [11],0
same,Velvetleaf plant response rating,velvetleaf; [12],0
same,Blackgrass plant response rating,blackgrass; [11],30
same,Blackgrass plant response rating,blackgrass; [12],10
same,Wheat plant response rating,wheat; [13],90
same,Wheat plant response rating,wheat; [11],10
same,Wheat plant response rating,wheat; [12],0
same,"Oat, Wild plant response rating",wild oat; [11],10
same,"Oat, Wild plant response rating",wild oat; [12],0
same,Rice plant response rating,rice [2],60
same,"Sedge, Umbrella plant response rating",[3],80
same,Ducksalad plant response rating,ducksalad [4],80
same,Barnyardgrass plant response rating,barnyardgrass [5],80
same,Rice plant response rating,"rice [6]; 62 g ai/ha, scale 0 to 100",20
same,Rice plant response rating,rice [6]; [14],40
same,Rice plant response rating,rice [6]; [15],60
same,"Plant response rating, Rice",rice [6]; [16],60
same,"Sedge, Umbrella plant response rating","[7]; 62 g ai/ha, scale 0 to 100",70
same,"Sedge, Umbrella plant response rating",[7]; [14],75
same,"Sedge, Umbrella plant response rating",[7]; [15],80
same,"Plant response rating, Sedge, Umbrella",[7]; [17],85
same,Ducksalad plant response rating,"ducksalad [8]; 62 g ai/ha, scale 0 to 100",30
same,Ducksalad plant response rating,ducksalad [8]; [14],40
same,Ducksalad plant response rating,ducksalad [8]; [15],60
same,"Plant response rating, Ducksalad",ducksalad [8]; [17],60
same,Barnyardgrass plant response rating,barnyardgrass [9]; [18],0
same,Barnyardgrass plant response rating,barnyardgrass [9]; [14],20
same,Barnyardgrass plant response rating,barnyardgrass [9]; [15],60
same,"Plant response rating, Barnyardgrass",barnyardgrass [9]; [16],65
CCc1nn(C(C)(C)CC)nc1C(=O)Nc1cc(C(=O)N(C)C)ccc1F [Compound 368],"Plant response rating (0 to 100 scale), Barnyardgrass",barnyardgrass [1]; [10],40
same,Barnyardgrass plant response rating,barnyardgrass [1]; [19],0
same,Barnyardgrass plant response rating,barnyardgrass [1]; [20],10
same,"Plant response rating (0 to 100 scale), Surinam Grass",Surinam grass; 125 g ai/ha,10
same,Surinam Grass plant response rating,Surinam grass; [19],0
same,Surinam Grass plant response rating,Surinam grass; [11],0
same,"Plant response rating (0 to 100 scale), Cocklebur",cocklebur; [10],0
same,Cocklebur plant response rating,cocklebur; [19],20
same,Cocklebur plant response rating,cocklebur; [20],30
same,"Plant response rating (0 to 100 scale), Corn",corn; [10],0
same,Corn plant response rating,corn; [19],0
same,Corn plant response rating,corn; [20],10
same,"Plant response rating (0 to 100 scale), Crabgrass, Large",large crabgrass; [10],10
same,"Crabgrass, Large plant response rating",large crabgrass; [19],10
same,"Crabgrass, Large plant response rating",large crabgrass; [20],10
same,"Plant response rating (0 to 100 scale), Foxtail, Giant",giant foxtail; [10],20
same,"Foxtail, Giant plant response rating",giant foxtail; [19],0
same,"Foxtail, Giant plant response rating",giant foxtail; [20],10
same,Lambsquarters plant response rating,lambsquarters; [19],50
same,Lambsquarters plant response rating,lambsquarters; [11],60
same,"Plant response rating (0 to 100 scale), Morningglory",morningglory; 125 g ai/ha,0
same,Morningglory plant response rating,morningglory; [19],0
same,Morningglory plant response rating,morningglory; [11],30
same,"Plant response rating (0 to 100 scale), Pigweed",pigweed; 125 g ai/ha,30
same,Pigweed plant response rating,pigweed; [19],10
same,Pigweed plant response rating,pigweed; [11],50
same,"Plant response rating (0 to 100 scale), Velvetleaf",velvetleaf; 125 g ai/ha,0
same,Velvetleaf plant response rating,velvetleaf; [19],10
same,Velvetleaf plant response rating,velvetleaf; [11],20
same,Blackgrass plant response rating,blackgrass; [19],0
same,Blackgrass plant response rating,blackgrass; [20],10
same,Wheat plant response rating,wheat; [19],0
same,Wheat plant response rating,wheat; [13],10
same,Wheat plant response rating,wheat; [11],0
same,"Oat, Wild plant response rating",wild oat; [19],0
same,"Oat, Wild plant response rating",wild oat; [11],0
same,Rice plant response rating,rice [2],50
same,"Sedge, Umbrella plant response rating",[3],80
same,Ducksalad plant response rating,ducksalad [4],90
same,Barnyardgrass plant response rating,barnyardgrass [5],60
same,Rice plant response rating,"rice [6]; 62 g ai/ha, scale 0 to 100",20
same,Rice plant response rating,rice [6]; [14],45
same,Rice plant response rating,rice [6]; [15],60
same,"Plant response rating, Rice",rice [6]; [16],70
same,"Sedge, Umbrella plant response rating","[7]; 62 g ai/ha, scale 0 to 100",20
same,"Sedge, Umbrella plant response rating",[7]; [14],75
same,"Sedge, Umbrella plant response rating",[7]; [15],75
same,Ducksalad plant response rating,"ducksalad [8]; 62 g ai/ha, scale 0 to 100",0
same,Ducksalad plant response rating,ducksalad [8]; [14],80
same,Ducksalad plant response rating,ducksalad [8]; [15],90
same,Barnyardgrass plant response rating,barnyardgrass [9]; [18],0
same,Barnyardgrass plant response rating,barnyardgrass [9]; [14],0
same,Barnyardgrass plant response rating,barnyardgrass [9]; [15],0
same,"Plant response rating, Barnyardgrass",barnyardgrass [9]; [16],30
